Data set [1] is described as follows: Ratio of kinetic constants (kcat/km) for the inhibition against carboxypeptidase B.
The target of data set [2] is T1, Carboxypeptidase B (Sus scrofa) (UniProt P09955).
T1 sequence (whole entry): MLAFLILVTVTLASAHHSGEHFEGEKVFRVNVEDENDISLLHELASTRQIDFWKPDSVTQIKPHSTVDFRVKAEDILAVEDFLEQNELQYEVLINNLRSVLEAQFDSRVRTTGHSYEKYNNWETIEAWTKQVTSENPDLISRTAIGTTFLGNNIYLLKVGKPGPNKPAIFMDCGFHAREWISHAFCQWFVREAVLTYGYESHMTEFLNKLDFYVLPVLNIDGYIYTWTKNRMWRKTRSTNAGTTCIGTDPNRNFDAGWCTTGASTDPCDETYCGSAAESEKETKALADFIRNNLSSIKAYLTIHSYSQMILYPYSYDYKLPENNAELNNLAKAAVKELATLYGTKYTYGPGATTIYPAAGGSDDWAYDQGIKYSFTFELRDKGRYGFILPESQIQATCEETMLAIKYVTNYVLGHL
Put plainly: Substrate kinetic value (kcat) against porcine carboxypeptidase B.

Substrate in data set [3]: COc1ccc(/N=N/C(=O)NC(CCCCN)C(=O)O)cc1
The experiment in a line: (§1) Affinity to porcine carboxypeptidase B at pH 7.9.

Substrate in data set [4]: C[C@@H](NC(=O)/C=C/c1ccco1)C(=O)N[C@@H](CCCCN)C(=O)O
The data set is described as §1.

Regarding `C[C@@H](NC(=O)/C=C/c1ccco1)C(=O)N[C@@H](CCCCN)C(=O)O`, in data set [1], the Ratio stood at 36000 M⁻¹ s⁻¹. `COc1ccc(/N=N/C(=O)NC(CCCCN)C(=O)O)cc1` (stereo not given): the k cat in data set [2] was determined as 76 s⁻¹. The Ratio in data set [1] was found to be 95000 M⁻¹ s⁻¹.

B1: Carboxypeptidase B (Sus scrofa), P09955 (protein)
chain: T1 sequence (whole entry)
Turning to B1, the figures for the Km in data set [3] and in data set [4] were 810 µM and 1160 µM, respectively.

One may read the Km as the concentration of substrate that gives half-maximal velocity.
